# Measured values published in the supplement of paper PMC5579334.
# Legend:
# YST-1 [1] = test: drug sensitivity score (DSS, CellTiter-Glo viability, 72 h) (DSS (dimensionless)); higher = more sensitive; extreme values may be limits of the assay
# Outline: (§1)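 MPNST cell lines and primary human Schwann cells (750–1000 cells per well) went into 384-well plates preprinted with each compound at five concentrations in 10-fold steps. Plates were incubated 72 h at 37 °C, 5% CO2. Viability was read as CellTiter-Glo ATP luminescence, scaled between vehicle and positive-control wells, with duplicates averaged where present. Percent inhibition is at the top concentration; drug sensitivity score and relative IC50 (censored at top concentration) come from four-parameter logistic fits.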
# HS-Sch-2 [2] = test: as above
# Outline: as §1
# HS-PSS [3] = test: as above
# Outline: as §1
# HS-PSS [4] = test: drug sensitivity score (DSS, CellTox-Green cytotoxicity, 72 h) (DSS (dimensionless)); higher = more cytotoxic; extreme values may be limits of the assay
# Outline: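 MPNST cell lines and primary human Schwann cells were incubated 72 h at 37 °C in 384-well plates holding five 10-fold compound dilutions. CellTox-Green was added before seeding at a final 1:1000 dilution and reported fluorescence from DNA released by disrupted cells. Signals were scaled to vehicle and positive-control wells, and cultures failing plate quality control were dropped. Drug sensitivity score and relative IC50 come from four-parameter logistic fits, with IC50 censored at the top concentration.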
# YST-1 [5] = test: % inhibition of CellTiter-Glo viability at highest tested concentration (72 h), relative to DMSO and benzethonium chloride controls; higher = more inhibition
# Outline: as §1
# HS-Sch-2 [6] = test: as above
# Outline: as §1
# HS-PSS [7] = test: as above
# Outline: as §1
Compound,drug sensitivity score (YST-1 [1]),drug sensitivity score (HS-Sch-2 [2]),drug sensitivity score (HS-PSS [3]),drug sensitivity score (HS-PSS [4]),% inhibition (YST-1 [5]),% inhibition (HS-Sch-2 [6]),% inhibition (HS-PSS [7])
C[C@@H]1CN(CC(=O)Nc2ccc3c(c2)Cc2cccc(-c4cc(=O)cc(N5CCOCC5)o4)c2S3)C[C@H](C)O1 (max concentration tested 25000 nM),1.74,8.7,1.79,0,41.4%,97.9%,45.7%
N#Cc1ccc2[nH]c(O)c(-c3ccc(CN4CCOCC4)cn3)c2c1 [AZD-1080] (max concentration tested 10000 nM),0,3.74,2.89,0,4.49%,77.1%,43.5%
Cc1ccc(NC(=O)c2ccc(CN3CC[C@H](N(C)C)C3)c(C(F)(F)F)c2)cc1Nc1nccc(-c2cncnc2)n1 [Bafetinib] (max concentration tested 1000 nM),1.49,0.33,0,0,28.5%,16.8%,-10.6%
CN(C)Cc1ccc(S(=O)(=O)n2ccc(/C=C/C(=O)NO)c2)cc1 [Resminostat] (max concentration tested 10000 nM),13.8,7.57,6.36,2.12,101%,100%,84.1%
Nc1nc(Nc2ccc3c(c2)CC[C@@H](N2CCCC2)CC3)nn1-c1cc2c(nn1)-c1ccccc1CCC2 [BGB324] (max concentration tested 10000 nM),7.59,14.4,2.95,0,99.3%,99.5%,23.7%
Cc1c(CN2CCN(C(=O)[C@H](C)O)CC2)sc2c(N3CCOCC3)nc(-c3cnc(N)nc3)nc12 [Apitolisib] (max concentration tested 10000 nM),18.3,9.07,8.39,0,86.9%,71.5%,64.5%
NC(=S)N/N=C/c1ncccc1N [Triapine] (max concentration tested 10000 nM),2.82,5.68,4.81,0.94,63.8%,63.9%,65.6%
FC(F)(F)c1ccc(/C=C/c2nc(COc3ccc(CCCCn4ccnn4)cc3)co2)cc1 [Mubritinib] (max concentration tested 1000 nM),6.65,12.9,17.4,0,28.4%,62.9%,74.8%
Cc1ccc(C(=O)Nc2ccc(Oc3cc4cnn(C)c4cc3-c3cn[nH]c3)c(F)c2)c(=O)n1-c1ccc(F)cc1 [Merestinib] (max concentration tested 1000 nM),1.74,1.13,3.07,0,25.2%,31%,46.7%
C/C=C1\NC(=O)[C@H]2CSSCC/C=C/[C@H](CC(=O)N[C@H](C(C)C)C(=O)N2)OC(=O)[C@H](C(C)C)NC1=O [Romidepsin] (max concentration tested 1000 nM),37.8,33,5.59,3.93,98.5%,100%,95.4%
O=C(Nc1nc2cccc(-c3ccc(CN4CCS(=O)(=O)CC4)cc3)n2n1)C1CC1 [Filgotinib] (max concentration tested 10000 nM),1.97,2.01,0.09,0,45.2%,35.7%,14.3%
Nc1cc(F)ccc1NC(=O)/C=C/c1cnn(C/C=C/c2ccccc2)c1 [RGFP966] (max concentration tested 10000 nM),5.15,4.52,4.21,0,55.7%,52.7%,33.2%
Cc1nn(C)c(COc2ccc(N3CCN(S(=O)(=O)N(C)C)CC3)cc2)c1-c1cccc2c(CCCOc3cccc4ccccc34)c(C(=O)O)n(CCN3CCOCC3)c12 (max concentration tested 50000 nM),6.72,5.73,4.52,1.47,101%,101%,90.5%
COc1cccc2c1C(=O)c1c(O)c3c(c(O)c1C2=O)C[C@@](O)(/C(CO)=N/NC(=O)CCCCCN1C(=O)C=CC1=O)C[C@@H]3O[C@H]1C[C@H](N)[C@H](O)[C@H](C)O1 [Aldoxorubicin] (max concentration tested 1000 nM),14.4,11,9.01,2.15,101%,101%,97.2%
O=C1c2ccccc2-c2n[nH]c3cccc1c23 (max concentration tested 100000 nM),2.42,2.29,4.26,0.2,34.2%,27.4%,43.2%
O=C(c1ccc(/C=C/c2n[nH]c3ccccc23)cc1)N1CCNCC1 [KW-2449] (max concentration tested 2500 nM),2.08,0,0,0,30.9%,0.48%,10.1%
CC[C@H](C)C(=O)O[C@H]1C[C@H](O)C=C2C=C[C@H](C)[C@H](CC[C@@H](O)C[C@@H](O)CC(=O)O)[C@H]21 [Pravastatin] (max concentration tested 10000 nM),0,0,1.44,0,0.31%,-3.68%,24.1%
O=C(NOC[C@H](O)CO)c1ccc(F)c(F)c1Nc1ccc(I)cc1F (max concentration tested 1000 nM),0,0.69,0.01,0,-8.18%,15%,12.4%

Compound,drug sensitivity score (YST-1 [1]),drug sensitivity score (HS-Sch-2 [2]),drug sensitivity score (HS-PSS [3]),drug sensitivity score (HS-PSS [4]),% inhibition (YST-1 [5]),% inhibition (HS-Sch-2 [6]),% inhibition (HS-PSS [7])
COc1cc2ncnc(Oc3cccc(NC(=O)Nc4cc(C(C)(C)C(F)(F)F)on4)c3)c2cc1OC (max concentration tested 10000 nM),0.17,0,0,0,3.62%,-3.7%,3.34%
CCNc1nc(Nc2cc(F)c(C(=O)N3CCOCC3)cc2OC)ncc1C(F)(F)F [GNE-7915] (max concentration tested 1000 nM),0,0.19,0,0,0.1%,12.4%,8.52%
OCCn1cc(-c2cnc3nnn(Cc4ccc5ncccc5c4)c3n2)cn1 (max concentration tested 2500 nM),0.62,0,0.05,0,18.5%,0.31%,9.08%
CC(C)[C@@H](CS(=O)(=O)C(C)C)N1C(=O)[C@@](C)(CC(=O)O)C[C@H](c2cccc(Cl)c2)[C@H]1c1ccc(Cl)cc1 [AMG-232] (max concentration tested 1000 nM),8.01,0,0.61,0,96.6%,-6.16%,22.4%
O=C(O)c1ccc(O)c2ncccc12 [IOX-1] (max concentration tested 100000 nM),2.03,0.26,0,0,46%,18.7%,1.4%
O=C(Nc1cccc(C(F)(F)F)c1)Nc1cc(S(=O)(=O)NC2CC2)ccc1-c1ccsc1 [AGI-6780] (max concentration tested 10000 nM),0.34,2.42,0.86,0,12.9%,28.6%,24.7%
COCC1(CO)C(=O)C2CCN1CC2 (stereo not given) [APR-246] (max concentration tested 10000 nM),0,0,0.39,0,-11%,5%,13.1%
N.N.[Cl][Pt][Cl] [Cisplatin] (max concentration tested 100000 nM),13.8,23.1,13.1,9.13,95.9%,100%,86.4%
Nc1cccc2c1CN(C1CCC(=O)NC1=O)C2=O (stereo not given) [Lenalidomide] (max concentration tested 100000 nM),1.7,0.18,0,0,20.7%,15.6%,6.75%
Cc1cc2c(C(=O)NC[C@H](C)c3ccccc3)c(O)c(O)cc2c(O)c1-c1c(C)cc2c(C(=O)NC[C@H](C)c3ccccc3)c(O)c(O)cc2c1O [Sabutoclax] (max concentration tested 25000 nM),17.3,19.6,4.91,0,89.2%,99.7%,96.5%
Cc1c(NC(=O)OC[C@@H]2COCCN2)cn2ncnc(Nc3ccc4c(cnn4Cc4cccc(F)c4)c3)c12 (max concentration tested 10000 nM),2.68,3.4,5.43,0.6,26.8%,44.4%,71.3%
CC(C)(C)C[C@@H]1N[C@@H](C(=O)N[C@H]2CC[C@H](O)CC2)[C@H](c2cccc(Cl)c2F)[C@]12C(=O)Nc1cc(Cl)ccc12 (max concentration tested 10000 nM),21.9,0.86,1.67,0,100%,19.6%,36.2%
Cc1nc(Nc2n[nH]c3c2CN(C(=O)N[C@H](CN(C)C)c2ccccc2)C3(C)C)c2sccc2n1 (max concentration tested 10000 nM),24.2,15.4,27.9,10.6,101%,101%,86.4%
Cc1[nH]c(/C=C2\C(=O)Nc3ccccc32)c(C)c1CCC(=O)O [Orantinib] (max concentration tested 10000 nM),0.72,0,0.29,20.3,20%,0.75%,15%
Cc1cc(C)c(CNC(=O)c2cc(-c3ccc(CN4CCOCC4)cc3)cc3c2cnn3C2CCCC2)c(=O)[nH]1 [EPZ-5687] (max concentration tested 10000 nM),0,0,0,0,1.37%,-5.4%,-1.01%
Cc1cc(Nc2cc(N3CCN(C)CC3)nc(Sc3ccc(NC(=O)C4CC4)cc3)n2)n[nH]1 [Tozasertib] (max concentration tested 10000 nM),12.9,8.18,4.85,0,45.5%,61.5%,31.3%
CCCCC/C=C/C=C1/C(=O)C=C[C@@H]1C/C=C\CCCC(=O)O [15D-PGJ2] (max concentration tested 3000 nM),0,0.58,0,0,-5.83%,16.9%,3.17%
